Here are results for two substances from US20250339531A1, “DUX4 POLYPEPTIDES AND NUCLEIC ACIDS FOR TREATING INFLAMMATORY AND AUTOIMMUNE CONDITIONS” (Fred Hutchinson Cancer Center, priority 2021, published 2025).

Entries after “also recorded” stand apart in the source; their conditions may differ.

Common to all, as to type: cell-based, human
For experiment [1], the system named is interferon-stimulated genes IFIH1, ISG20, CXCL9, and CD74. Description: IFNG induction of interferon-stimulated genes, RT-qPCR in MB135 cells with doxycycline-inducible transgenes. To be noted: for suppression of IFNG induction of ISGs (IFIH1, ISG20, CXCL9, CD74): MB135 cells, doxycycline-induced transgene, continuous protocol, IFNG 16 h. As for the experimental part:
(§1) All myoblast experiments were conducted in immortalized MB135 or MB200 myoblast cell lines (isolated from a control or FSHD2 subject, respectively cultured in Ham's F-10 Nutrient Mix (Gibco) supplemented with 15% fetal bovine serum (Hyclone), 100 U/100 μg/ml penicillin/streptomycin (Gibco), 1 μM dexamethasone (Sigma), and 10 ng/ml recombinant human basic fibroblast growth factor (PeproTech). To differentiate the myoblasts to myotubes, media was changed to DMEM supplemented with 10 μg/ml insulin (Sigma) and 10 μg/ml transferrin (Sigma). Cell lines containing doxycycline-inducible transgenes were additionally cultured with 2 μg/mL puromycin (Sigma). Transgenes were induced with 1 μg/mL of doxycycline (Sigma) for 4 hours prior to other treatments for a total of 20 hrs. The Kitra-SRS cells (RRID:CVCL_YI69) were provided by Dr. H. Otani and Osaka University (Nakai et al., 2019) and were cultured in DMEM supplemented with 10% fetal bovine serum (Hyclone) and 100 U/100 μg/ml penicillin/streptomycin (Gibco). Biological replicates consisted of independent but parallel experiments, such as simultaneously stimulating three cell culture plates with IFNγ. Technical replicates consisted of repeat measurements of the same biological sample, such as loading the same biological sample in triplicate for analysis by RT-qPCR.
(§2) Myoblasts were transfected with either (final concentrations) 10 μM 2′,3′-cGAMP (Sigma Aldrich), 2 μg/mL poly(I:C) (Invitrogen), or 1 μg/mL 3′ppp-dsRNA RIG-I ligand (Dan Stetson Lab, UW) using Lipofectamine 2000 according to manufacturer's protocol, or were stimulated with 1000U IFNβ (PeproTech) or 200 ng/ml IFNγ (R+D Systems) by addition directly to cell culture medium. After 16 hours of immune stimulation, RNA was collected from cells using the NucleoSpin RNA Kit (Macherey-Nagel) according to manufacturer's instructions. RNA samples were quantified by nanodrop and 1 μg of RNA per sample was treated with DNase I Amplification Grade (Thermo Fisher), and then synthesized into cDNA using the Superscript IV First-Strand Synthesis System, including oligo dT primers (Invitrogen). qPCR was run in 384-well plates on an Applied Biosystems QuantStudio 6 Flex Real-Time PCR System (ABI) and analyzed in Microsoft Excel.
(Quantitative PCR measures a nucleic acid by following its amplification.)

Experiment [2] deals with ISG induction by IFNG. Description: RNA-seq of IFNG-induced genes in MB135 cells. The following applies: doxycycline + IFNG; for IFNG-induced genes whose induction was suppressed more than 2-fold (percent) / IFNG-induced genes whose induction was suppressed more than 4-fold (percent): genes induced by IFNG (log 2 fold-change >3). As for the experimental part:
RNA was extracted as described above from untreated, doxycycline-treated, IFNγ-treated, or doxycycline- and IFNγ-treated samples. RNA was submitted to the Fred Hutchinson Cancer Research Center Genomics Core for library preparation using the TruSeq3 Stranded mRNA kit (Illumina) followed by size and quality analysis by Tapestation (Agilent). Libraries were sequenced on a NextSeq P2-100 (Illumina).
Sequencing analysis was performed using R version 4.0.3 (R Core Team, 2020). Sequencing reads were trimmed using Trimmomatic (version 0.39) (Bolger et al., 2014, Trimmomatic: a flexible trimmer for Illumina sequence data. Bioinformatics 30, 2114-2120), and aligned to the Homo sapiens GRCh38 reference genome with the Rsubread aligner (Liao et al., 2019, The R package Rsubread is easier, faster, cheaper and better for alignment and quantification of RNA sequencing reads. Nucleic Acids Res 47, e47). Gene counts were analyzed using featureCounts (v2.0.1) (Liao et al., 2019, supra) and the Gencode v35 annotation file. Normalization and differential expression analysis were done with DESeq2 (v1.26.0) (Love et al., 2014, Moderated estimation of fold change and dispersion for RNA-seq data with DESeq2. Genome Biol 15, 550).

The subject of experiment [3] is ZSCAN4. Description: Activation of DUX4 target gene ZSCAN4, RT-qPCR. The following applies: MB135 cells ± doxycycline. As for the experimental part:
as §1, §2

Experiment [4] deals with HLA-E. The experiment in a line: Immunoblot of non-canonical MHC class I HLA-E. To be noted: MB135iDUX4 cells. The method, then: Protein samples were harvested in RIPA buffer [150 mM NaCl, 1% NP-40, 0.5% Na-deocycholate, 1% SDS, 25 mM Tris-HCl pH7.4] supplemented with protease and phosphatase inhibitor tablets (Pierce), followed by sonication in Diagenode Bioruptor. Lysate was cleared by centrifugation at 16000×g and quantified using a Pierce BCA assay (Thermo Fisher Scientific). Samples were run on NuPAGE precast polyacrylamide gels (Invitrogen) and transferred to PVDF membrane. Membranes were blocked in PBS containing 0.1% Tween-20 and 5% non-fat dry milk before overnight incubation at 4° C. with primary antibodies (see resource table for a list of antibodies used in this study). Membranes were incubated with horseradish peroxidase-conjugated secondary antibodies for 1 hour at room temperature and SuperSignal chemiluminescent substrate (Thermo Scientific) was used for detection on film with a Mini-medical 90 processor. Membranes were stripped with Restore Western Blot Stripping Buffer (Pierce).
(In general: A western blot detects proteins with antibodies after separation by electrophoresis.)

For experiment [5], the system named is MEL375 cells. The experiment in a line: IFNG-induced MHC class I in MEL375 melanoma cells (immunoblot, FACS). As for the experimental part: Expression of DUX4-CTD fragment suppresses interferon-induced MHC Class I expression and requires intact (L)LxxL(L) motifs. Human melanoma MEL375 cells were transduced with doxycycline inducible vectors expressing the 3×Flag-nls-tagged DUX4 CTD-154-424 (iDUX4-CTD) (SEQ ID NOS: 8-9) or the similar constructs with a mutation in the first (L)LxxL(L) motif and a deletion of the second (L)LxxL(L) motif (iDUX4-mL1dL2) (SEQ ID NOS: 10-11). Cells were treated with doxycycline (1 μg/ml) for four hours followed by the addition of interferon-gamma treatment for 16 hrs (50 ng/ml).

[6] abbreviates: 113 genes induced by IFNG (log 2 fold-change >3).

“DUX4: human DUX4 protein SEQ ID NO:3 expressed from doxycycline inducible codon altered transgene SEQ ID NO:2”: the “suppression of IFNG induction of ISGs (IFIH1, ISG20, CXCL9, CD74)” value (shortened to “suppression of IFNG induction of ISGs”) in experiment [1] is “blocks induction of ISGs IFIH1 and ISG20 by IFNG and IFNB1; also recorded: robustly blocked”; in experiment [1] (listed as iDUX4-CA) it was “suppresses IFNG induction of all for ISGs”. In experiment [2] (setting [6]), the “IFNG-induced genes whose induction was suppressed more than 2-fold (number)” value is given as 102 genes. Moreover, the “IFNG-induced genes whose induction was suppressed more than 4-fold (number)” value in experiment [2] (setting [6]) was found to be 76 genes. Further, the “IFNG-induced genes whose induction was suppressed more than 2-fold (percent)” value in experiment [2] is given as 90%. Further, the “IFNG-induced genes whose induction was suppressed more than 4-fold (percent)” value in experiment [2] was 67%. In addition, the “transcriptional activation of DUX4 target gene ZSCAN4” value in experiment [3] is given as “strongly induced”; in experiment [3] (listed as iDUX4-CA) it was “robust activator of its target gene ZSCAN4”; in experiment [3] (listed as wild-type DUX4), “Only the wild-type DUX4 shows transcriptional activation of its target gene”. Further, the “effect on IFNG-induced HLA-E protein” value in experiment [4] is “does not suppress the noncanonical MHC class E (HLA-E); also recorded: maintaining HLA-E in multiple cell types”. Further, in experiment [5] (Mel375iDUX4), the “suppression of MHC class I proteins in MEL375 cells, pulse protocol” value is “prolonged suppression of MHC class I proteins in the MEL375 melanoma cell line”.

For the substance “longCTD: 3×FLAG tag and nls in frame with carboxyterminal 271 amino acids of DUX4 (aa154-424), SEQ ID NOS: 8-9”, in experiment [1] (MB135-iDUX4-CTD cells used for STAT1 ChIP), the “suppression of RNA induction of GBP1, IDO1, CXCL10 by IFNG” value is recorded as “robustly suppressed the RNA induction by IFNG”. In addition, in experiment [1], the “suppression of IFNG induction of ISGs” value is on record as “sufficient to block most or all ISG induction by IFNG; also recorded: suppresses three of the four IFNG-induced genes”. Further, the “suppression of IFNG induction of ISGs” value in experiment [1] (listed as iDUX4-CTD) is given as “equally suppressed activation of ISGs”. Also, in experiment [2], the “IFNG-induced genes whose induction was suppressed more than 2-fold (percent)” value was 90% and the “IFNG-induced genes whose induction was suppressed more than 4-fold (percent)” value is reported as 52%. Moreover, the “transcriptional activation of DUX4 target gene ZSCAN4” value in experiment [3] is recorded as “transcriptionally silent”. In addition, the “MHC surface protein expression by FACS” value in experiment [5] (MEL375 cells, doxycycline then IFNG) is given as “decreased MHC surface protein expression”. Moreover, in experiment [5] (doxycycline 1 μg/ml 4 h then IFNG 50 ng/ml 16 hrs), the “suppression of IFNG-induced MHC class I proteins in MEL375 cells” value is “suppresses IFNG induction of MHC proteins”.
